Results reported in patent publication US5688485A, “Radiolabelled complexes of ester-substituted diaminethiols” (The DuPont Merck Pharmaceutical Company, priority 1992, dated 1997).
Read-outs that look alike come from different tables or passages of the source.

Columns and labels:
[1] = in words; cited from earlier work
[2] = rhesus monkey, in vivo
Protocol: Three adult male Rhesus monkeys were used for planar scintigraphic imaging. Anesthesia was induced with ketamine and maintained with 1-2% halothane in a 70/30 mixture of nitrous oxide and oxygen.
All acquisitions were performed using a Picker Digital Dyna Camera and a Siemens MicroDELTA terminal/MAXDELTA system. A high resolution parallel-hole collimator ("HEX48") was mounted on the camera. The general static acquisition protocol was employed, using an acquisition matrix of 128 by 128 pixels, in word mode. Linearity, Z- and uniformity correction as provided for in the camera console, were employed and maintained.
To provide correction for attenuation, a transmission image of each animal was required. This had to be acquired in such a fashion as to permit the location of individual organs to be delineated from an aligned emission image. To do this, an 18-inch commercial refillable flood source (Nuclear Associates, Carle Place, N.Y.) was filled with water on a flat, horizontal surface. It was then loaded with between 20 mCi (740 Mbq) and 30 mCi (1110 Mbq) of Tc99mO4^-, and placed on a rolling cart. A Picker high-resolution collimator was then placed atop the source and the cart positioned under the patient examination table of the camera.
For each animal, a transmission image was acquired immediately prior to the control study injection, in the following fashion: An initial "flood" image was taken of the collimated source with neither the animal nor the examination table in place. Without moving anything else, the examination table, with the anesthetized animal, was placed between the source and the camera. Images were then taken of both the upper and lower portions of the body using a 128×128 pixel matrix in word mode. Table positioning was restricted by the track system so that positioning markers were necessary only for the dimension parallel to the animal's vertical axis.
Without moving the camera, the source was withdrawn and removed from the room. Adjustments to the camera-subject distance were made only by raising or lowering the table. The control compound was then injected and the control study begun. In this way, organs could be identified from the control study and the regions applied to the transmission study to determine attenuation correction factors on a per-organ basis. In addition, an "efficiency" factor was determined from images taken of a small flask containing a measured amount of radioactivity.
Following the injection of Tc-99m labeled materials, images were acquired of each animal using "spot" views over the upper and lower portions of the body with conjugate views (i.e. 180-degree opposed views) for each.
The resulting image data was analyzed by creating regions of interest (ROI's) for each organ and determining the sum of the recorded gamma photons for each organ in each view. From the transmission view, an attenuation correction factor was derived for each organ and the activity in the organ determined by taking the square root of the product of the ROI sums for conjugate views of the organ and then multiplying by the attenuation correction factor for that organ and then by the efficiency factor.
Each animal was imaged with Tc-99m-(L,L)-N,N'-1,2-ethylenediylbiscysteine, diethyl ester in order to serve as its own control. One test isomer was then administered to each of the monkeys. Frequent blood samples were drawn from a peripheral leg vein. Regions of interest were drawn around all pertinent organs and time-activity curves were constructed.

[3] = cited from earlier work

Biodistribution: Brain ([2]; 30 min)	Biodistribution: Gall Bladder ([2]; 30 min)	Biodistribution: Urinary Bladder ([2]; 30 min)	Biodistribution: Brain ([2]; 60 min)	Biodistribution: Gall Bladder ([2]; 60 min)	Biodistribution: Urinary Bladder ([2]; 60 min)	Molecule	Route / rate of renal elimination ([3]; in words)	further results
–	–	–	–	–	–	O=C(O)CNC(=O)c1ccccc1[123I] [Example I-123-OIH]	–	radiation burden to the patient [1]: much lower radiation burden to the patient
5.8 percentage of the initial inje	10 percentage of the initial inje	29 percentage of the initial inje	5.6 percentage of the initial inje	17 percentage of the initial inje	42 percentage of the initial inje	Tc-99m-(L,L)-N,N'-1,2-ethylenediylbiscysteine, diethyl ester [Example 4]	–	–
–	–	–	–	–	–	Tc-99m-mercaptoacetyltriglycine [Tc-99m-MAG3]	secreted by the kidneys selectively by tubular secretion and approximately as rapidly as OIH	organ specificity ([3]; in words): less than desired
–	–	–	–	–	–	Tc-99m-diethylenetriamine pentaacetic acid [Tc-99m-DTPA]	eliminated entirely or nearly entirely by glomerular filtration	maximum extraction efficiency ([3]; in vivo): 20-25%
–	–	–	–	–	–	Nc1ccc(C(=O)NCC(=O)O)cc1 [PAH, p-aminohippuric acid]	–	removed from the plasma by active secretion into the tubules ([3]; in vivo): approximately 70%
2.1 percentage of the initial inje	2.7 percentage of the initial inje	4.2 percentage of the initial inje	1.8 percentage of the initial inje	6.4 percentage of the initial inje	4.0 percentage of the initial inje	anti-Tc-99m-(D,L)-N,N'-1,2-ethylenediylbiscysteine, diethyl ester [Example 3]	–	–
–	–	–	–	–	–	O=C(O)CNC(=O)c1ccccc1[131I] [Example I-131-OIH, I-131-o-iodohippurate]	rapidly removed from the blood by active tubular secretion	radiation burden to the patient [1]: significant radiation burden to the patient; renal extraction efficiency ([3]; in vivo): 65-80%
1.7 percentage of the initial inje	5.5 percentage of the initial inje	5.0 percentage of the initial inje	1.4 percentage of the initial inje	5.2 percentage of the initial inje	15 percentage of the initial inje	Tc-99m-(D,D)-N,N'-1,2-ethylenediylbiscysteine, diethyl ester [Example 5]	–	–
3.4 percentage of the initial inje	2.2 percentage of the initial inje	58 percentage of the initial inje	3.0 percentage of the initial inje	6.2 percentage of the initial inje	74 percentage of the initial inje	syn-Tc-99m-(D,L)-N,N'-1,2-ethylenediylbiscysteine, diethyl ester [Example 2]	–	Renal excretion [2]: most rapidly excreted; Uptake in other organs / liver activity [2]: low uptake in other organs, especially the gall bladder
